Experimental data from article PMC10797628.
Where a chain is given by its changes, count along the chain named. Where two headings read alike, the source gives them in different places.

Legend:
S5.42A 5-HT1D receptor = S5.42A 5-HT1D receptor (Homo sapiens, UniProt P28221, S201A); assay: Radioligand binding, S5.42A 5-HT1D
Procedure: (§4) 48 hours after transfection with the desired receptor construct, cells were isolated for saturation and competition binding assays as previously described.[47],[48],[57] Saturation and competition radioligand binding assays were conducted in an assay buffer consisting of 50 mM Tris HCl, 10 mM MgCl2, and 0.1 mM EDTA in filtered deionized water. […] Briefly, 5–10 μg of the receptor protein, as determined by a Thermo Fisher Pierce BCA protein assay kit, was incubated with 8 concentrations of radioligand in triplicate to determine total binding. […] Nonspecific binding was determined as above for saturation assays.
(§5) For radioligand binding data, nonspecific binding was subtracted from the total binding to get specific binding. Saturation binding data was fit to the “binding saturation-specific binding with hill slope” model. Competition binding data were fit to the “binding competition-one-site fit Ki” non-linear regression model and transformed to pKi values, reported as mean ± SD.
(§6) is 50 mM Tris HCl, 10 mM MgCl2 and 0.1 mM EDTA in filtered deionized water.

human 5-HT1F receptor = biological target: T1, human 5-HT1F receptor (Homo sapiens, UniProt P30939); assay: Radioligand binding (saturation and competition), WT 5-HT1F
T1 construct: host or cells: HEK293T
T1 sequence (P30939 1-366): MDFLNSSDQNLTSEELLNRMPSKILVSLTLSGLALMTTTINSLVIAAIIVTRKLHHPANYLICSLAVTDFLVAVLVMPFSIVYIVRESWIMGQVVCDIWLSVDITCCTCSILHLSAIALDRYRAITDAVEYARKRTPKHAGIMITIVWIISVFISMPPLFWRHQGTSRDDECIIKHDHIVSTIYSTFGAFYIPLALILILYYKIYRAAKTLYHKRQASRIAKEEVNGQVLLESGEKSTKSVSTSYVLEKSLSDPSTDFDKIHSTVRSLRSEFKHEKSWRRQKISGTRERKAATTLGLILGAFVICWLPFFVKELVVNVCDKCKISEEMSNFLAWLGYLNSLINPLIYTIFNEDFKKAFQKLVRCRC

Y5.38F 5-HT1D receptor = Y5.38F 5-HT1D receptor (Homo sapiens, UniProt P28221, Y197F); assay: Radioligand binding, Y5.38F 5-HT1D
Procedure: as §4, §5, §6

T7.39N 5-HT1D receptor = T7.39N 5-HT1D receptor (Homo sapiens, UniProt P28221, T342N); assay: cAMP accumulation in HEK293T cells, T7.39N 5-HT1D; format: cell-based; design: host or cells: HEK293T; conditions: point-mutated receptor, 3 independent experiments, read-out: pEC50 5-HT1D Receptor N7.39T (converted)
Procedure: (§1) Briefly, cells transfected with the desired receptor construct and compounds were incubated in the dark for 90 min at 37 °C. After incubation, cAMP detection reagents were added, and TR-FRET was used to quantify the cAMP produced.
(§2) The functional activity of compounds was determined by stimulating cells expressing the desired receptor with FSK and test compound in parallel with 12 known concentrations of cAMP. The known concentrations of cAMP were used to create a standard curve for each experiment that was used to interpolate the unknown values of cAMP in wells with test compounds. […] The EC50 and EMAX values were determined using the “dose response – log[agonist] vs response (three parameter)” nonlinear regression model in Prism and transformed to pEC50 values, reported as mean ± SD.
Cell Type Receptor Cell Density [Forskolin] Incubation time
(§3) Summary of functional assay conditions at various 5-HT1 receptor point mutation constructs.

Y5.38A 5-HT1D receptor = Y5.38A 5-HT1D receptor (Homo sapiens, UniProt P28221, Y197A); assay: Radioligand binding, Y5.38A 5-HT1D
Procedure: as §4, §5, §6

human 5-HT1B receptor = biological target: T2, human 5-HT1B receptor (Homo sapiens, UniProt P28222); assay: cAMP accumulation (LANCE Ultra TR-FRET) in HEK293T cells, WT 5-HT1B; format: cell-based; conditions: for EC50: cAMP accumulation, HEKt cells, mean ± SD; for Emax: HEK-293T
T2 construct: host or cells: HEK293T
Procedure: as §1, §2, §3

human 5-HT1A receptor = biological target: T3, human 5-HT1A receptor (Homo sapiens, UniProt P08908); assay: Radioligand binding (saturation and competition), WT 5-HT1A
T3 construct: host or cells: HEK293T
T3 sequence (P08908 1-422): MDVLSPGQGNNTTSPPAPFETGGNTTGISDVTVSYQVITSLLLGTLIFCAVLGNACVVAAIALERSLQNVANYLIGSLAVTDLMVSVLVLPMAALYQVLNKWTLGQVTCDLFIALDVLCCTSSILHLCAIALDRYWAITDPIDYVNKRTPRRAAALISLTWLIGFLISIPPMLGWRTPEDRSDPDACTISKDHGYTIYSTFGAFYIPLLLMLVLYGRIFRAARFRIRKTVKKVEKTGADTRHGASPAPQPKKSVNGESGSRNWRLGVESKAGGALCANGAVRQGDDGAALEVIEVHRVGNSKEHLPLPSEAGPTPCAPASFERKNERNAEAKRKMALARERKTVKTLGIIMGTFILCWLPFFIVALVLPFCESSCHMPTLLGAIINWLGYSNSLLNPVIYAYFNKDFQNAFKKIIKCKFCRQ

S5.42A 5-HT1A receptor = biological target: T4, S5.42A 5-HT1A receptor (Homo sapiens, UniProt P08908, S199A); assay: Radioligand binding, S5.42A 5-HT1A
T4 sequence (P08908 1-422 S199A): T3 sequence (P08908 1-422) with S199A
Procedure: as §4, §5, §6

Y5.38F 5-HT1A receptor = biological target: T5, Y5.38F 5-HT1A receptor (Homo sapiens, UniProt P08908, Y195F); assay: cAMP accumulation in HEK293T cells, Y5.38F 5-HT1A; format: cell-based; design: mutated in house (Quikchange II) HTR01A0000; host or cells: HEK293T; conditions: point-mutated receptor, 3 independent experiments, read-out: pEC50 5-HT1A Receptor Y5.38F (converted)
T5 sequence (P08908 1-422 Y195F): T3 sequence (P08908 1-422) with Y195F
Procedure: as §1, §2, §3

[1] = read-out: 5-HT1B EMAX (%), WT receptor, normalized to basal (0%) and 10 μM 5-CT (100%)

Sequence of Y5.38F 5-HT1D receptor (P28221 whole entry Y197F): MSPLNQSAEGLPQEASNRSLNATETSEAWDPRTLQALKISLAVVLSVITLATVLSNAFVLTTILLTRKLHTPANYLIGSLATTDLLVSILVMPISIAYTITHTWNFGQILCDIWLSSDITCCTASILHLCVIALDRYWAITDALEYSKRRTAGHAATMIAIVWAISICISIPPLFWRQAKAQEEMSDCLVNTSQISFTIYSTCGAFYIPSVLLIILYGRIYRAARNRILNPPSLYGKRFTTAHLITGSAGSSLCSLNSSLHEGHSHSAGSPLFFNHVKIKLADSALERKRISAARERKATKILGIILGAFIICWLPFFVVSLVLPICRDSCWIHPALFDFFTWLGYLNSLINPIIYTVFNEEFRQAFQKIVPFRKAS
T2 sequence (P28222 whole entry): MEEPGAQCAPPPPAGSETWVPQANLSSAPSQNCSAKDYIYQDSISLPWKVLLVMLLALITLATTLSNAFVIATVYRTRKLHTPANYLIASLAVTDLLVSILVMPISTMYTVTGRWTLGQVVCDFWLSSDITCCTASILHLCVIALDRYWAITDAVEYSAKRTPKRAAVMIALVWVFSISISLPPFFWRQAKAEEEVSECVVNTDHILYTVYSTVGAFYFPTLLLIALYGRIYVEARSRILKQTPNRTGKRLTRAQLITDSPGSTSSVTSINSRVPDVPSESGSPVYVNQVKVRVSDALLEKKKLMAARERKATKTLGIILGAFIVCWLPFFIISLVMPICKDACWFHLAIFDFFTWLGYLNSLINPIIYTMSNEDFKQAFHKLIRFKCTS
Sequence of T7.39N 5-HT1D receptor (P28221 whole entry T342N): as the sequence (P28221 whole entry Y197F) above, with F197Y, T342N counted along it
Sequence of S5.42A 5-HT1D receptor (P28221 whole entry S201A): as the sequence (P28221 whole entry Y197F) above, with F197Y, S201A counted along it
Sequence of Y5.38A 5-HT1D receptor (P28221 whole entry Y197A): as the sequence (P28221 whole entry Y197F) above, with F197A counted along it

Row | Ki (human 5-HT1A receptor; read-out: Affinity (pKi ± SD) 5-HT1A (converted)) [µM] | Ki (human 5-HT1F receptor; WT receptor, [^3H]5-HT competition, mean ± SD, read-out: Affinity (pKi ± SD) 5-HT1F (converted)) [µM] | Emax (human 5-HT1B receptor; read-out: 5-HT1B EMAX (%)) [%] | EC50 (human 5-HT1B receptor; WT receptor, read-out: 5-HT1B pEC50 (converted)) [µM] | Compound | Ki (S5.42A 5-HT1D receptor) [µM] | Ki (human 5-HT1F receptor) [µM] | Ki (Y5.38F 5-HT1D receptor) [µM] | EC50 (T7.39N 5-HT1D receptor) [µM] | Ki (Y5.38A 5-HT1D receptor) [µM] | EC50 (human 5-HT1B receptor; 5-HT1B pEC50, WT receptor) [µM] | Emax (human 5-HT1B receptor; [1]) [%] | 5-HT1B EMAX (%) (human 5-HT1B receptor; WT receptor, normalized to basal (0%) and 10 μM 5-CT (100%)) | Ki (human 5-HT1A receptor; Affinity (pKi ± SD) 5-HT1A, WT receptor, [^3H]5-CT competition, mean ± SD) [µM] | Ki (S5.42A 5-HT1A receptor) [µM] | EC50 (Y5.38F 5-HT1A receptor) [µM] | higher functional potency at 5-HT1B over 5-HT1A receptors (human 5-HT1B receptor; cAMP potency ratio)
1 | – | – | – | – | CN(C)[C@H]1CCc2c(cccc2-c2ccccc2F)C1 [(S)-FPT] | 0.00129 | > 10 | 0.00129 | 0.0141 | 0.00107 | 0.00049 | > 90 | 100 ± 2 | – | – | – | –
2 | – | – | – | – | CN(C)[C@H]1CCc2c(cccc2-c2cccc3ccccc23)C1 [(S)-NAP] | 0.00117 | 5.37 | 0.000661 | 0.01 | 0.0708 | 0.0347 | 30 ± 4 | – | 0.0617 | 0.0631 | 0.38 | about 10 fold
3 | 0.00126 | > 10 | 99 ± 2 | 0.0562 | Fc1ccccc1-c1cccc2c1CC[C@H](N1CCCC1)C2 [(S)-PFPT] | 0.0417 | – | 0.0417 | 0.0186 | 0.0427 | – | – | – | – | 0.00148 | 0.00209 | –
